Each molecule was assayed on HIV-1 NL4-3 viral clone expressing Renilla luciferase (assay: microbe, parasite or virus in culture). Conditions: Human immunodeficiency virus 1, NL43, MT2, 96 h.
Assay type: cell-based
Method: Protocol for MT-2 Spread Assay
The present assay was used to screen candidate antiviral compounds by quantification of virus spread and production over several rounds of infection in vitro. MT-2, a HIV-1 permissive human T-cell line, was seeded in microtiter plates and was simultaneously treated with serially diluted compound and inoculated with a HIV-1 NL4-3 viral clone engineered to express Renilla luciferase in place of Net Following treatment, the culture was incubated for 96 hours. After the incubation, media was collected and used to estimate relative infectivity on the indicator cell line, TZM-bl. Additionally, viral spread was quantified by measuring luciferase activity via a commercially available luciferase substrate. In parallel, MT-2 cells were seeded and inoculated with mock virus in the presence of serially diluted compound. Compound toxicity was quantified 96 hours after treatment with AlamarBlue.
MT-2 (NIH Aids reagent program 237) cells were grown and maintained in an incubator at 37° C. with 5% CO2 using a basal medium of RPMI-1640 supplemented with 10% FBS. Cells were seeded in 100 μl at 2×10^4 cells/well in white walled 96-well microtiter plates. Candidate compounds were 3-fold serially diluted in the appropriate solvent. Solvent without compound was used as a no drug reference. Cells were inoculated at a multiplicity of 0.027 with an HIV-1 NL4-3 virus stock engineered to express Renilla luciferase in place of Net Diluted virus stock was first added to serially diluted compound. Compound and virus were delivered to cells in an equal volume (100 μl) and treated cultures were returned to the incubator for 96 hours. In parallel, plates for cytotoxicity estimates were prepared in the same way except cells were plated in clear walled 96-well microtiter plates and were mock infected.
At 96 hours post infection, 100 μl virus containing culture supernatant was collected from the treated and infected cultures and serially diluted in DMEM supplemented with 10% FBS, 1% sodium pyruvate, and 20 μg/ml DEAE dextran. One day prior, TZM-bl (ATCC PTA-5659) were cultured in basal medium of DMEM supplemented with 10% FBS and 1% sodium pyruvate and seeded at 7.5×10^3 cells/well in black walled 96-well microtiter plates. Diluted virus containing culture supernatant was transferred to TZM-bl cultures and incubated for 48 hours at 37° C. with 5% CO2. Infected TZM-bl cultures were fixed for 5 minutes with a 1% formaldehyde/0.2% gluteraldehyde/PBS solution then washed three times with PBS. Fixed cultures were incubated at 37° C. for 25 minutes with a 200 μg/ml MUG (4-Methylumbelliferyl β-D-[…])/DMEM solution. The reaction was stopped with an equal volume of 1M sodium carbonate and read at 360, 449 nm on fluorescence plate reader (Biotek).
At 96 hours post infection, 100 μl of culture supernatant was removed from the treated and infected cultures and EnduRen live cell substrate (Promega) was added at a final concentration 1.3 μg/ml. Cells were incubated for 1.5 hours at 37° C. with 5% CO2 then read on a luminescence plate reader (Biotek).
For all assays, data was imported into Accelrys Assay Explorer 3.3. In Assay Explorer, % inhibition (antiviral or cytotoxicity) was calculated using the solvent control as a reference by the following equation: 1−(SignalCompound/SignalReference). The % Inhibition and compound concentration data was fitted using the following 4-parameter logistic model (Assay Explorer model 42):
[formula] where X is compound concentration, Y is % inhibition, D is the maximum % Inhibition (constrained to 100%), C is IC50 value or inflection point, B is the hill slope, and A is the minimum % inhibition (constrained to 0%). The IC50 value is reported as the EC50 or CC50 depending on the assay endpoint. EC50 represents the effective concentration at which virus replication is inhibited by 50 percent. CC50 represents the concentration that results in the death of 50 percent of the host cells. […]

In order of falling EC50:
1. COc1cc2c(cc1OCc1ccccc1)CCNC2/C=C/c1cc2ccccc2s1 (stereo not shown) [DU, 1-[(E)-2-(1-Benzothiophen-2-yl)ethenyl]-6-(benzyloxy)-7-methoxy-1,2,3,4-tetrahydroisoquinoline]  10100 nM
2. COc1cc2c(cc1OCc1ccccc1)CCNC2/C=C/c1ccnn1C (stereo not shown) [Example AK, 6-benzyloxy-7-methoxy-1-[(E)-2-(2-methylpyrazol-3-yl)vinyl]-1,2,3,4-tetrahydroisoquinoline]  8870 nM
3. COc1cccc(/C=C/C2NCCc3cc(OCc4ccccc4)c(OC)cc32)c1 (stereo not shown) [EJ, 6-Benzyloxy-7-methoxy-1-[(E)-2-(3-methoxyphenyl)vinyl]-1,2,3,4-tetrahydroisoquinoline]  2980 nM
4. CCn1cc(/C=C/C2NCCc3cc(OCc4ccccc4)c(OC)cc32)cn1 (stereo not shown) [Example AL, 6-Benzyloxy-1-[(E)-2-(1-ethylpyrazol-4-yl)vinyl]-7-methoxy-1,2,3,4-tetrahydroisoquinoline]  2950 nM
5. COc1cc2c(cc1OCc1ccccc1)CCNC2/C=C/c1sccc1C (stereo not shown) [BS, 6-Benzyloxy-7-methoxy-1-[(E)-2-(3-methyl-2-thienyl)vinyl]-1,2,3,4-tetrahydroisoquinoline]  2870 nM
6. COc1cc2c(cc1OCc1ccccc1)CCNC2/C=C/c1ccc(OC(F)(F)F)cc1C (stereo not shown) [Example AJ, (E)-6-(benzyloxy)-7-methoxy-1-(2-methyl-4-(trifluoromethoxy)styryl)-1,2,3,4-tetrahydroisoquinoline]  2740 nM
7. COc1cc2c(cc1OCc1ccccc1)CCNC2/C=C/c1cccc(C(F)(F)F)c1 (stereo not shown) [DB, (E)-6-(benzyloxy)-7-methoxy-1-(3-(trifluoromethyl)styryl)-1,2,3,4-tetrahydroisoquinolin]  2670 nM
8. COc1ccccc1/C=C/C1NCCc2cc(OCc3ccccc3)c(OC)cc21 (stereo not shown) [DG, (E)-6-(benzyloxy)-7-methoxy-1-(2-methoxystyryl)-1,2,3,4-tetrahydroisoquinoline]  2200 nM
9. COCCOc1ccccc1/C=C/C1NCCc2cc(OCc3ccccc3)c(OC)cc21 (stereo not shown) [DE, (E)-6-(benzyloxy)-7-methoxy-1-(2-(2-methoxyethoxy)styryl)-1,2,3,4-tetrahydroisoquinoline]  1440 nM
10. COc1ccc(/C=C/C2NCCc3cc(OCc4ccccc4)c(OC)cc32)cc1F (stereo not shown) [BF]  1020 nM
11. COc1cc2c(cc1OCc1ccccc1)CCNC2/C=C/c1cccc(-c2ncco2)c1 (stereo not shown) [EC, 2-[3-[(E)-2-(6-Benzyloxy-7-methoxy-1,2,3,4-tetrahydroisoquinolin-1-yl)vinyl]phenyl]oxazole]  930 nM
12. COc1cc2c(cc1OCc1ccccc1)CCNC2/C=C/c1ccc2c(c1)OCC2 (stereo not shown) [EG, 6-Benzyloxy-1-[(E)-2-(2,3-dihydrobenzofuran-6-yl)vinyl]-7-methoxy-1,2,3,4-tetrahydroisoquinoline]  900 nM
13. COc1ccc(/C=C/C2NCCc3cc(OCc4ccccc4)c(OC)cc32)cc1Br (stereo not shown) [AR, 6-Benzyloxy-1-[(E)-2-(3-bromo-4-methoxy-phenyl)vinyl]-7-methoxy-1,2,3,4-tetrahydroisoquinoline]  800 nM
14. COc1cc(/C=C/C2NCCc3cc(OCc4ccccc4)c(OC)cc32)cc(OC)c1 (stereo not shown) [AT, 6-Benzyloxy-1-[(E)-2-(3,5-dimethoxyphenyl)vinyl]-7-methoxy-1,2,3,4-tetrahydroisoquinoline]  770 nM
15. COc1cc2c(cc1OCc1ccccc1)CCNC2/C=C/c1ccc(OC)c(C(F)(F)F)c1 (stereo not shown) [CY, (E)-6-(Benzyloxy)-7-methoxy-1-(4-methoxy-3-(trifluoromethyl)styryl)-1,2,3,4-tetrahydroisoquinoline]  697 nM
16. COc1cc2c(cc1OCc1ccccc1)CCNC2/C=C/c1ccccc1C (stereo not shown) [Example W, 6-benzyloxy-7-methoxy-1-[(E)-2-(o-tolyl)vinyl]-1,2,3,4-tetrahydroisoquinoline]  690 nM
17. COc1ccc(/C=C/C2NCCc3cc(OCc4ccccc4)c(OC)cc32)c(OC)n1 (stereo not shown) [CA, 6-Benzyloxy-1-[(E)-2-(2,6-dimethoxy-3-pyridyl)vinyl]-7-methoxy-1,2,3,4-tetrahydroisoquinoline]  640 nM
18. COc1cc2c(cc1OCc1ccccc1)CCNC2/C=C/c1ccc(-c2ncco2)cc1 (stereo not shown) [ED, 2-[4-[(E)-2-(6-Benzyloxy-7-methoxy-1,2,3,4-tetrahydroisoquinolin-1-yl)vinyl]phenyl]oxazole]  580 nM
19. COc1cc(C)c(/C=C/C2NCCc3cc(OCc4ccccc4)c(OC)cc32)c(C)c1 (stereo not shown) [BA, 6-Benzyloxy-7-methoxy-1-[(E)-2-(4-methoxy-2,6-dimethyl-phenyl)vinyl]-1,2,3,4-tetrahydroisoquinoline]  497 nM
20. CCN1CCN(c2ccc(/C=C/C3NCCc4cc(OCc5ccccc5)c(OC)cc43)cc2)CC1 (stereo not shown) [DO, (E)-6-(benzyloxy)-1-(4-(4-ethylpyrazin-1-yl)styryl)-7-methoxy-1,2,3,4-tetrahydroisoquinoline]  496 nM
21. COc1cc2c(cc1OCc1ccccc1)CCNC2/C=C/c1cccc2c1OCCC2 (stereo not shown) [CF, 6-Benzyloxy-1-[(E)-2-chroman-8-ylvinyl]-7-methoxy-1,2,3,4-tetrahydroisoquinoline]  490 nM
22. COc1cc2c(cc1OCc1ccccc1)CCNC2/C=C/c1cc(OCC2CCNCC2)c(OC)cc1C (stereo not shown) [BY, 6-Benzyloxy-7-methoxy-1-[(E)-2-[4-methoxy-2-methyl-5-(4-piperidylmethoxy)phenyl]vinyl]-1,2,3,4-tetrahydroisoquinoline]  397 nM
23. COc1cc2c(cc1OCc1ccccc1)CCNC2/C=C/c1ccc(-c2cccnc2)cc1 (stereo not shown) [DJ]  393 nM
24. COc1ccc(/C=C/C2NCCc3cc(OCc4ccccc4)c(OC)cc32)cc1C (stereo not shown) [EI, 6-Benzyloxy-7-methoxy-1-[(E)-2-(4-methoxy-3-methyl-phenyl)vinyl]-1,2,3,4-tetrahydroisoquinoline]  340 nM
25. COc1cc2c(cc1OCc1ccccc1)CCNC2/C=C/c1cccc(OCc2ccccc2)c1 (stereo not shown) [BK, 6-Benzyloxy-1-[(E)-2-(3-benzyloxyphenyl)vinyl]-7-methoxy-1,2,3,4-tetrahydroisoquinoline]  260 nM
26. COc1cc2c(cc1OCc1ccccc1)CCNC2/C=C/c1cc(OC)c(OC)c(OC)c1 (stereo not shown) [Example AM, 6-Benzyloxy-7-methoxy-1-[(E)-2-(3,4,5-trimethoxyphenyl)vinyl]-1,2,3,4-tetrahydroisoquinoline]  220 nM
27. COc1cc2c(cc1OCc1ccccc1)CCNC2/C=C/c1ccc(OC)c2occc12 (stereo not shown) [Example AN, 6-Benzyloxy-7-methoxy-1-[(E)-2-(7-methoxybenzofuran-4-yl)vinyl]-1,2,3,4-tetrahydroisoquinoline]  140 nM
28. CCOC(=O)CCCOc1cc(/C=C/C2NCCc3cc(OCc4ccccc4)c(OC)cc32)ccc1OC (stereo not shown) [CV, Ethyl 4-[5-[(E)-2-(6-benzyloxy-7-methoxy-1,2,3,4-tetrahydroisoquinolin-1-yl)vinyl]-2-methoxy-phenoxy]butanoate]  100 nM
29. CCCCOc1cc(/C=C/C2NCCc3cc(OCc4ccccc4)c(OC)cc32)ccc1OC (stereo not shown) [BE, 6-Benzyloxy-1-[(E)-2-(3-butoxy-4-methoxy-phenyl)vinyl]-7-methoxy-1,2,3,4-tetrahydroisoquinoline]  99.8 nM
30. COc1cc(C)c(/C=C/C2NCCc3cc(OCc4ccccc4)c(OC)cc32)cc1OCc1ccccc1 (stereo not shown) [AF, 6-benzyloxy-1-[(E)-2-(5-benzyloxy-4-methoxy-2-methyl-phenyl)vinyl]-7-methoxy-1,2,3,4-tetrahydroisoquinoline]  83 nM
31. COc1cc(OC)c(OC)cc1/C=C/C1NCCc2cc(OCc3ccccc3)c(OC)cc21 (stereo not shown) [AQ, 6-Benzyloxy-7-methoxy-1-[(E)-2-(2,4,5-trimethoxyphenyl)vinyl]-1,2,3,4-tetrahydroisoquinoline]  15.1 nM
